# Laboratory results taken from publication PMC4364341, “NBD delivery improves the disease phenotype of the golden retriever model of Duchenne muscular dystrophy” (Skeletal Muscle, 2014).
# Settings: dog, in vivo, iv
# Text: Having established a treatment regimen that provides efficacy of NBD in mice, we next asked whether such therapy could be applied to a larger animal model of DMD. […] In addition, normal hematology (white blood cell, red blood cell, platelet counts) and serum chemistry (ALT, AST, GGT, bilirubin, creatinine, potassium, creatine kinase) profiles were noted following a single IV injection of NBD in normal dogs (data not shown). Based on our collective data, a preclinical trial in GRMD dogs was initiated with four primary outcomes: skeletal muscle function, MRI of pelvic limb muscles, histopathologic features of skeletal muscles, and safety. Juvenile GRMD (n = 6) and wild type (n = 3) dogs at 2 months of age were treated for 4 months by IV infusions, 3× weekly, at 10 mg/Kg. Results were compared with those collected from untreated GRMD and wild type dogs through a separate, natural history study.
sequence,measurement,value
"TALDWSWLQTE [NBD, NBD peptide (…) fused to an Antennapedia protein transduction domain]",Hematology and serum chemistry profiles,normal
